Drawing on patent US9050353B2, “Use of icariin and epimedium flavonoids containing icariin to treat diseases associated with myelin sheath lesion” (Xuanwu Hospital of Capital Medical University, priority 2010, dated 2015), this text covers IL-1 content for one molecule.

Each structure is given as a SMILES string.

In this assay the test system is IL-1. As to the kind of experiment: Serum IL-1 content by ELISA, EAE mice. Format: in vivo. The following applies: positive control drug, dose not given. As for the experimental part:
Preparation of mice model and administration: experimental autoimmune encephalomyelitis (EAE) mice model is an important tool for studying various human demyelinating diseases of nervous system. In the present experiment, the preparation of EAE mice model was performed by immunizing female C57BL/6J mice with myelin sheath oligodendroglial cell surface glycoprotein MOG35-55. That is, the mice were subcutaneously injected at dorsal part of spinal column with 0.2 mL of MOG35-55 antigen elixir, and 0.2 ml of bordetella pertussis solution was intraperitoneally injected at the time of immunization injection and 48 h thereafter, respectively. Icariin was intragastrically administered after the last injection of bordetella pertussis solution, for consecutive 3 weeks.
Experimental objective: interleukin-1 (IL-1) and IL-6 are important inflammatory cytokines, and have promoting effects on inflammatory reactions. This experiment used enzyme linked immunosorbent assay (ELISA) to measure contents of IL-1 and IL-6 in serums of EAE mice model, and the effects of icariin on these contents were observed.
Experimental method: mice were anesthetized with pentobarbital sodium, blood sample was taken from abdominal aorta, stood at room temperature for 2 h, centrifuged at 3000 rpm for 20 min, and supernatant was taken, stored at −80° C. for use. The operation was performed strictly according to the steps of specification of ELISA kit. Optical density was measured with ELIASA at 450 nm. The corresponding contents of IL-1 and IL-6 were calculated with the measured OD values on standard curves.

For the molecule `CC(=O)OCC(=O)[C@@]1(O)CC[C@H]2[C@@H]3CCC4=CC(=O)C=C[C@]4(C)[C@H]3C(=O)C[C@@]21C` [prednisone acetate], the IL-1 content worked out at 0.115 ± 0.001 pg/mL.
